Measured values taken from patent publication US11325899B2, “Benzofurane and benzothiophene derivatives as PGE2 receptor modulators” (IDORSIA PHARMACEUTICALS LTD, priority 2017, dated 2022).

Tests used:
EP2 receptor = biological target: T1, EP2 receptor (Homo sapiens, UniProt P43116); assay: hEP2 cAMP assay (SF295 glioblastoma cells, HTRF cAMP, PGE2 stimulation); type: cell-based; details: antagonistic activity
T1 construct: SF295 glioblastoma cells express high endogenous EP2 and no EP4; host or cells: SF295 glioblastoma cells
Procedure, shortened: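 SF295 glioblastoma cells with endogenous EP2 and no EP4, in HBSS/HEPES/BSA with 2 mM IBMX, pre-incubated 45 min at room temperature with compound, then stimulated 30 min with 75 nM PGE2 (EC80). cAMP measured by HTRF; IC50 fitted from duplicate % cAMP versus DMSO control.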

EP4 receptor = biological target: T2, EP4 receptor (Homo sapiens, UniProt P35408); assay: hEP4 cAMP assay (BT549 breast cancer cells, HTRF cAMP, PGE2 stimulation); type: cell-based; details: antagonistic activity, PGE2 6 nM (EC80)
T2 construct: BT549 breast cancer cells, express high endogenous EP4 levels and very low EP2 levels; host or cells: BT549 breast cancer cells
Procedure, shortened: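 BT549 cells, with endogenous EP4 and very low EP2, were preincubated 45 min at room temperature with compound in HBSS/HEPES/BSA buffer with 2 mM IBMX. They were then stimulated 30 min with 6 nM PGE2 (EC80). cAMP was measured by HTRF competitive immunoassay against a calibrator; IC50 from duplicate dose-response as % of DMSO control.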

T2 sequence (P35408 whole entry): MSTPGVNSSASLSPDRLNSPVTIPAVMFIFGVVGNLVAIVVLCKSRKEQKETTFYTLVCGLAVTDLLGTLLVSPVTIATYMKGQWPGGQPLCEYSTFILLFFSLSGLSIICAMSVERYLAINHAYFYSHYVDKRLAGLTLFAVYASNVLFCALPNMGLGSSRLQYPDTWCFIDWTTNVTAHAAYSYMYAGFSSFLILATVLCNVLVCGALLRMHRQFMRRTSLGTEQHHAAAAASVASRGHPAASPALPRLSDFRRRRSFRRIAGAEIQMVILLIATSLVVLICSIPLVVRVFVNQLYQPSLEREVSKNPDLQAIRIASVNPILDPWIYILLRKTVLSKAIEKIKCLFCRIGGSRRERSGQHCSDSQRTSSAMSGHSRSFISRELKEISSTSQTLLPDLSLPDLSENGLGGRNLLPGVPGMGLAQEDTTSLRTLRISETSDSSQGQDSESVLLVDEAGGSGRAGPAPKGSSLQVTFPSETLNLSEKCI
T1 sequence (P43116 whole entry): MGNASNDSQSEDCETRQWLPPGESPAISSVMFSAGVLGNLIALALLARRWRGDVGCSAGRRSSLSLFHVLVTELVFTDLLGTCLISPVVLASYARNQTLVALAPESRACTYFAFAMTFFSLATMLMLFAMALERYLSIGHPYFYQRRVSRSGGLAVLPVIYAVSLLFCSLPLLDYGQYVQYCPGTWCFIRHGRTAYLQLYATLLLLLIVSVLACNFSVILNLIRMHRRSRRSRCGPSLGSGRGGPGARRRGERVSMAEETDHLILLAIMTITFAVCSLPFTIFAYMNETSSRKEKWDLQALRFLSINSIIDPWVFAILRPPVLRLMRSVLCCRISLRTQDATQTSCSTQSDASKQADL

SMILES | IC50 (EP2 receptor) | IC50 (EP4 receptor)
CCOc1cc(-c2cc(NCCc3c(C)sc4c(C)cc(F)cc34)ncn2)sc1CCC(=O)O [Example 97, 3-(3-Ethoxy-5-{6-[2-(5-fluoro-2,7-dimethyl-benzo[b]thiophen-3-yl)-ethylamino]-pyrimidin-4-yl}-thiophen-2-yl)-propionic acid] | 120 nM | 105 nM
Cc1sc2c(C)cccc2c1CCNc1cc(-c2ccc(C(=O)O)c(SCC(C)C)c2)ncn1 [Example 166, 4-{6-[2-(2,7-Dimethyl-benzo[b]thiophen-3-yl)-ethylamino]-pyrimidin-4-yl}-2-isobutylsulfanyl-benzoic acid] | 183 nM | 1130 nM
CCCc1cc(-c2cc(NCCc3c(C#N)sc4c(C)cc(F)cc34)ncn2)ccc1CC(=O)O [Example 170, (4-{6-[2-(2-Cyano-5-fluoro-7-methyl-benzo[b]thiophen-3-yl)-ethylamino]-pyrimidin-4-yl}-2-propyl-phenyl)-acetic acid] | 116 nM | 13 nM
CCCOc1cc(-c2cc(NCCc3c(C)sc4c(C)cc(F)cc34)ncn2)ccc1CC(=O)O [Example 190, (4-{6-[2-(5-Fluoro-2,7-dimethyl-benzo[b]thiophen-3-yl)-ethylamino]-pyrimidin-4-yl}-2-propoxy-phenyl)-acetic acid] | 274 nM | 219 nM
COc1ccc(F)c2c(CCNc3cc(-c4ccc(C(=O)O)c(OC5CCC5)c4)ncn3)c(C)oc12 [Example 139, 2-Cyclobutoxy-4-{6-[2-(4-fluoro-7-methoxy-2-methyl-benzofuran-3-yl)-ethylamino]-pyrimidin-4-yl}-benzoic acid] | 245 nM | 481 nM
CCOc1cc(-c2cc(NCCc3c(C)sc4c(C)c(F)ccc34)ncn2)ccc1CC(=O)O [Example 112, (2-Ethoxy-4-{6-[2-(6-fluoro-2,7-dimethyl-benzo[b]thiophen-3-yl)-ethylamino]-pyrimidin-4-yl}-phenyl)-acetic acid] | 188 nM | 450 nM
CCOc1cc(-c2cc(NCCc3c(C)sc4c(C)ccc(F)c34)ncn2)ccc1CC(=O)O [Example 107, (2-Ethoxy-4-{6-[2-(4-fluoro-2,7-dimethyl-benzo[b]thiophen-3-yl)-ethylamino]-pyrimidin-4-yl}-phenyl)-acetic acid] | 249 nM | 255 nM
Cc1cc(F)cc2c(CCNc3cc(-c4ccc(CC(=O)O)c(OC(C)C)c4)ncn3)c(C#N)sc12 [Example 171, (4-{6-[2-(2-Cyano-5-fluoro-7-methyl-benzo[b]thiophen-3-yl)-ethylamino]-pyrimidin-4-yl}-2-isopropoxy-phenyl)-acetic acid] | 275 nM | 42 nM
CCOc1cc(-c2cc(NCCc3c(C#N)sc4c(C)cc(F)cc34)ncn2)cc(F)c1CC(=O)O [Example 165, (4-{6-[2-(2-Cyano-5-fluoro-7-methyl-benzo[b]thiophen-3-yl)-ethylamino]-pyrimidin-4-yl}-2-ethoxy-6-fluoro-phenyl)-acetic acid] | 129 nM | 40 nM
COc1cc(Cl)cc2c(CCNc3cc(-c4ccc(C(=O)O)c(OC5CCC5)c4F)ncn3)c(C)oc12 [Example 147, 4-{6-[2-(5-Chloro-7-methoxy-2-methyl-benzofuran-3-yl)-ethylamino]-pyrimidin-4-yl}-2-cyclobutoxy-3-fluoro-benzoic acid] | 117 nM | 889 nM
Cc1sc2c(C)cc(F)cc2c1CCNc1cc(-c2ccc(CC(=O)O)c(CC(C)C)c2)ncn1 [Example 182, (4-{6-[2-(5-Fluoro-2,7-dimethyl-benzo[b]thiophen-3-yl)-ethylamino]-pyrimidin-4-yl}-2-isobutyl-phenyl)-acetic acid] | 617 nM | 378 nM
Cc1sc2c(C)cc(F)cc2c1CCNc1cc(-c2ccc(C(=O)O)c(OCC(C)C)c2)ncn1 [Example 184, 4-{6-[2-(5-Fluoro-2,7-dimethyl-benzo[b]thiophen-3-yl)-ethylamino]-pyrimidin-4-yl}-2-isobutoxy-benzoic acid] | 39 nM | 553 nM
COc1cc(F)c(F)c2c(CCNc3cc(-c4ccc(C(=O)O)c(OC5CCC5)c4)ncn3)c(C)oc12 [Example 141, 2-Cyclobutoxy-4-{6-[2-(4,5-difluoro-7-methoxy-2-methyl-benzofuran-3-yl)-ethylamino]-pyrimidin-4-yl}-benzoic acid] | 111 nM | 582 nM
Cc1cc(F)cc2c(CCNc3cc(-c4ccc(C(=O)O)c(OC(C)C)c4)ncn3)c(C#N)sc12 [Example 172, 4-{6-[2-(2-Cyano-5-fluoro-7-methyl-benzo[b]thiophen-3-yl)-ethylamino]-pyrimidin-4-yl}-2-isopropoxy-benzoic acid] | 50 nM | 70 nM
Cc1oc2c(C)cc(F)cc2c1CCNc1cc(-c2ccc(C(=O)O)c(OC3CCC3)c2)ncn1 [Example 140, 2-Cyclobutoxy-4-{6-[2-(5-fluoro-2,7-dimethyl-benzofuran-3-yl)-ethylamino]-pyrimidin-4-yl}-benzoic acid] | 72 nM | 580 nM
COc1ccc(Cl)c2c(CCNc3cc(-c4cc(C)c(C(=O)O)s4)ncn3)c(C)sc12 [Example 5, 5-{6-[2-(4-Chloro-7-methoxy-2-methyl-benzo[b]thiophen-3-yl)-ethylamino]-pyrimidin-4-yl}-3-methyl-thiophene-2-carboxylic acid] | 177 nM | 479 nM
CCCOc1cc(-c2cc(NCCc3c(C)sc4c(C)c(F)ccc34)ncn2)ccc1C(=O)O [Example 99, 4-{6-[2-(6-Fluoro-2,7-dimethyl-benzo[b]thiophen-3-yl)-ethylamino]-pyrimidin-4-yl}-2-propoxy-benzoic acid] | 30 nM | 450 nM
CCOc1cc(-c2cc(NCCc3c(C)sc4c(OC)ccc(F)c34)ncn2)ccc1OCC(=O)O [Example 117, (2-Ethoxy-4-{6-[2-(4-fluoro-7-methoxy-2-methyl-benzo[b]thiophen-3-yl)-ethylamino]-pyrimidin-4-yl}-phenoxy)-acetic acid] | 101 nM | 54 nM
Cc1sc2c(C)cccc2c1CCNc1cc(-c2ccc(C(=O)O)c(SC3CCC3)c2)ncn1 [Example 130, 2-Cyclobutylsulfanyl-4-{6-[2-(2,7-dimethyl-benzo[b]thiophen-3-yl)-ethylamino]-pyrimidin-4-yl}-benzoic acid] | 20 nM | 980 nM
CCc1oc2c(C)cc(F)cc2c1CCNc1cc(-c2cc(C)c(C(=O)O)s2)ncn1 [Example 7, 5-{6-[2-(2-Ethyl-5-fluoro-7-methyl-benzofuran-3-yl)-ethylamino]-pyrimidin-4-yl}-3-methyl-thiophene-2-carboxylic acid] | 198 nM | 624 nM
Cc1sc2c(C)cccc2c1CCNc1cc(-c2ccc(C(=O)O)c(SC3COC3)c2)ncn1 [Example 131, 4-{6-[2-(2,7-Dimethyl-benzo[b]thiophen-3-yl)-ethylamino]-pyrimidin-4-yl}-2-(oxetan-3-ylsulfanyl)-benzoic acid] | 22 nM | 625 nM
CCCc1cc(-c2cc(NCCc3c(C#N)sc4c(C)cc(F)cc34)ncn2)ccc1C(=O)O [Example 167, 4-{6-[2-(2-Cyano-5-fluoro-7-methyl-benzo[b]thiophen-3-yl)-ethylamino]-pyrimidin-4-yl}-2-propyl-benzoic acid] | 11 nM | 29 nM
CCc1nc(-c2cc(NCCc3c(C)sc4c(C)cc(F)cc34)ncn2)sc1C(=O)O [Example 161, 4-Ethyl-2-{6-[2-(5-fluoro-2,7-dimethyl-benzo[b]thiophen-3-yl)-ethylamino]-pyrimidin-4-yl}-thiazole-5-carboxylic acid] | 27 nM | 363 nM
Cc1sc2c(C)cc(F)cc2c1CCNc1cc(-c2ccc(C(=O)O)c(OC3CCCC3)c2)ncn1 [Example 152, 2-Cyclopentyloxy-4-{6-[2-(5-fluoro-2,7-dimethyl-benzo[b]thiophen-3-yl)-ethylamino]-pyrimidin-4-yl}-benzoic acid] | 84 nM | 581 nM
CCOc1cc(-c2cc(NCCc3c(C)oc4c(OC)cc(Cl)cc34)ncn2)ccc1OCC(=O)O [Example 121, (4-{6-[2-(5-Chloro-7-methoxy-2-methyl-benzofuran-3-yl)-ethylamino]-pyrimidin-4-yl}-2-ethoxy-phenoxy)-acetic acid] | 155 nM | 129 nM
COc1cc(F)c(F)c2c(CCNc3cc(-c4cc(F)c(C(=O)O)c(OC5CCC5)c4)ncn3)c(C)oc12 [Example 150, 2-Cyclobutoxy-4-{6-[2-(4,5-difluoro-7-methoxy-2-methyl-benzofuran-3-yl)-ethylamino]-pyrimidin-4-yl}-6-fluoro-benzoic acid] | 97 nM | 450 nM
CCCOc1cc(-c2cc(NCCc3c(C)sc4c(C)cc(F)cc34)ncn2)ccc1C(=O)O [Example 100, 4-{6-[2-(5-Fluoro-2,7-dimethyl-benzo[b]thiophen-3-yl)-ethylamino]-pyrimidin-4-yl}-2-propoxy-benzoic acid] | 20 nM | 457 nM
COc1ccc(Cl)c2c(CCNc3cc(-c4ccc(C(=O)O)c(OC(F)F)c4)ncn3)c(C)sc12 [Example 116, 4-{6-[2-(4-Chloro-7-methoxy-2-methyl-benzo[b]thiophen-3-yl)-ethylamino]-pyrimidin-4-yl}-2-difluoromethoxy-benzoic acid] | 35 nM | 223 nM
Cc1oc2ccccc2c1CCNc1cc(-c2ccc(C(=O)O)c(SC3CCC3)c2)ncn1 [Example 129, 2-Cyclobutylsulfanyl-4-{6-[2-(2-methyl-benzofuran-3-yl)-ethylamino]-pyrimidin-4-yl}-benzoic acid] | 15 nM | 795 nM
